The source of these data is EP0241395A2, “Sweeteners derived from n-phenylguanidinoacetic and n-phenylethananamidinacetic acids, and compositions containing such sweeteners” (UNIVERSITE CLAUDE BERNARD - LYON 1, priority 1986, dated 1987).

The conditions of assay [1]: cited from earlier work.
Assay [2] concerns groupe de huit goûteurs expérimentés. The experiment in a line: Sweetening power judged by a panel of eight experienced tasters against a sucrose reference solution. It counts as in vivo. Conditions: weight basis; for Pouvoir édulcorant: Table II, relative to a 2 % sucrose solution; for pouvoir édulcorant, sur une base pondérale: approximate. A digest of the protocol: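 Panel of eight experienced tasters compared aqueous solutions of compound at varying concentrations with a sucrose reference at 2 %, sometimes 5 % and 10 %. Sweetening power is the weight ratio of sucrose to compound at equal sweetness intensity, as judged by a majority of tasters, and depends on the reference concentration.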

[3] abbreviates: by comparison with a 2 % sucrose solution.
Setting [4] is: by comparison with a 5 % sucrose solution.
Where [5] appears, read: by comparison with a 10 % sucrose solution.

Peptide text beside a SMILES is read from it.

On to `OC[C@@H](O)[C@H](O)[C@@H](O)CO` [Xylitol], for which the “Pouvoir sucrant (saccharose = 1)” value in assay [1] is 1.

For Glycyrrhizine, the “Pouvoir sucrant (saccharose = 1)” value in assay [1] is on record as 50. Take `COC(=O)[C@H](Cc1ccccc1)NC(=O)[C@@H](N)CC(=O)O` [Aspartame] (H-Asp-Phe-OMe): the “Pouvoir sucrant (saccharose = 1)” value in assay [1] is 200.

`CC1=CC(=O)NS(=O)(=O)O1` [Acésulfame-K]: in assay [1], the “Pouvoir sucrant (saccharose = 1)” value was 200. Regarding `COc1ccc(CCC(=O)c2c(O)cc(O[C@@H]3O[C@H](CO)[C@@H](O)[C@H](O)[C@H]3O[C@@H]3O[C@@H](C)[C@H](O)[C@@H](O)[C@H]3O)cc2O)cc1O` [Néohespéridine dihydrochalcone], the “Pouvoir sucrant (saccharose = 1)” value in assay [1] was 1000.

As to `OC[C@H]1O[C@H](O[C@]2(CCl)O[C@H](CCl)[C@@H](O)[C@@H]2O)[C@H](O)[C@@H](O)[C@H]1Cl` [Trichlorogalactosucrose], the “Pouvoir sucrant (saccharose = 1)” value in assay [1] was 2000. With `CC(=O)c1ccc(N=C(NCC(=O)O)N[C@@H](C)c2ccccc2)cc1` [Exemple 15, acide N-[N-(S) -α-méthylbenzylamino (4-acétylphénylimino)méthyl]-2-aminoéthanoïque], in assay [2], the “Pouvoir édulcorant” value is on record as 800. Besides, the “pouvoir édulcorant, sur une base pondérale” value in assay [2] (setting [3]) was roughly 800 fois celui du saccharose.

Take `C[C@H](NC(=Nc1ccc([N+](=O)[O-])cc1)NCC(=O)O)c1ccccc1` [Exemple 18, acide N-[N-(S)-a-méthylbenzylamino (4-nitrophénylimino)méthyl]-2-aminoéthanoïque]: in assay [2], the Pouvoir édulcorant was 7000. Moreover, in assay [2] (setting [3]), the “pouvoir édulcorant, sur une base pondérale” value is ~7 000 fois celui du saccharose. The like results for `CCNC(=Nc1ccc(C#N)cc1)NCC(=O)O` [Exemple 35, acide N-[N-éthylamino(4-cyanophénylimino)méthyl]-2-aminoéthanoïque] were, in that order, 350 and roughly 350 fois celui du saccharose. The corresponding values for `N#Cc1ccc(N=C(NCC(=O)O)NC23CC4CC(CC(C4)C2)C3)cc1` [Exemple 71, acide N-[N-(1-adamantyl)amino(4-cyanophénylimine)méthyl]-2-8minoéthanoique] are 3 500 and ~3 500 fois celui du saccharose. The corresponding values for `N#CN=C(NCC(=O)O)Nc1cccc(Cl)c1` [Exemple 73, acide N-[cyanoimino(3-chlorophénylamino)méthyl]-2-aminoéthanoïque] are 80 and roughly 80 fois celui du saccharose.

In assay [2], `C[C@H](NC(=Nc1cc(Cl)cc(Cl)c1)NCC(=O)O)C1CCCCC1` [Exemple 63, acide N-[N-(S)-l-cyclohexyléthylamino(3,5-dichlorophénylimino)méthyl]-2-aminoéthanoïque] displayed a Pouvoir édulcorant of 70000. For the same compound, in assay [2] (setting [3]), the “pouvoir édulcorant, sur une base pondérale” value is recorded as ~70 000 fois celui du saccharose. The corresponding values for `Cc1cccc(NC(=Nc2ccc(C#N)cc2)NCC(=O)O)c1` [Exemple 65, acide N-[N-(3-méthylphényl)amino(4-cyanophénylimino)méthyl]-2-aminoéthanoïque] are 9000 and ~9 000 fois celui du saccharose. The like results for `N#Cc1ccc(N=C(NCC(=O)O)N2CCCC2)cc1` [Exemple 82, acide N-[N,N-(tétraméthylène)amino (4-cyanophénylimino)méthyl]-2-aminoéthanoïque] were, in that order, 100 and roughly 100 fois celui du saccharose. In turn, `N#Cc1ccc(N=C(NCC(=O)O)NC2CCCCC2)cc1` [Exemple 43, acide N-[N-cyclohexylamino(4-cyanophénylimino)méthyl]-2-aminoéthanoïque] showed a Pouvoir édulcorant in assay [2] of 12000. Moreover, the figures for the “pouvoir édulcorant, sur une base pondérale” value in assay [2] (setting [3]), in assay [2] (setting [4]) and in assay [2] (setting [5]) were ~12 000 fois celui du saccharose, ~10 500 fois celui du saccharose and ~8 500 fois celui du saccharose, respectively. In assay [2], `C[C@H](NC(=Nc1cccc(Br)c1)NCC(=O)O)c1ccccc1` [Exemple 2, acide N-[N-(S)-a-méthylbenzylamino (3-bromophénylimino)méthyl]-2-aminoéthanoïque] gave a Pouvoir édulcorant of 25000. In addition, the “pouvoir édulcorant, sur une base pondérale” value in assay [2] (setting [3]) is reported as ~25 000 fois celui du saccharose. The corresponding values for `Cc1ccc(NC(=Nc2ccc(C#N)cc2)NCC(=O)O)cc1` [Exemple 66, acide N-[N-(4-méthylphényl)amino(4-cyanophénylimino)méthyl]--2-aminoéthanoïque] are 7000 and ~7 000 fois celui du saccharose. The like results for `O=C(O)CNC(=Nc1cccc2ccccc12)Nc1cc(Cl)cc(Cl)c1` [Exemple 68, acide N-[N-1-naphtylamino (3,5-dichlorophénylimino)méthyl]-2-aminoéthanoïque] were, in that order, 30000 and ~30 000 fois celui du saccharose. The corresponding values for `CN(C(=NCc1ccccc1)NCC(=O)O)c1ccccc1` [Exemple 84, acide N-[benzylimino(N-méthyl-N-phénylamino)méthyl]-2-aminoéthanoïque] are 200 and roughly 200 fois celui du saccharose. For the compound `CC1(C)SC(C)(C)C1NC(=Nc1ccc(C#N)cc1)NCC(=O)O` [Exemple 78, acide N-[N-(2,2,4,4-tétraméthylthiacyclobut-3-yl)amino(4-cyanophénylimino)méthyl]-2-amino-éthanoïque], in assay [2], the “Pouvoir édulcorant” value was found to be 700. Also, in assay [2] (setting [3]), the “pouvoir édulcorant, sur une base pondérale” value was roughly 700 fois celui du saccharose.

Compound `N#Cc1ccc(N=C(NCC(=O)O)NC2CCCCCCCC2)cc1` [Exemple 50, acide N-[N-cyclononylamino(4-cyanophénylimino)méthyl]-2-aminoéthanoïque] showed a Pouvoir édulcorant in assay [2] of 200000. In addition, the “pouvoir édulcorant, sur une base pondérale” value in assay [2] (setting [3]) was ~200 000 fois celui du saccharose.

With `N#Cc1ccc(N=C(NCC(=O)O)N2CCCCC2)cc1` [Exemple 83, acide N-[N,N-(pentaméthylène)amino (4-cyanophénylimino)méthyl]-2-aminoéthanoïque], in assay [2], the “Pouvoir édulcorant” value is 200. In addition, the “pouvoir édulcorant, sur une base pondérale” value in assay [2] (setting [3]) was roughly 200 fois celui du saccharose.

Compound `C[C@@H](NC(=Nc1ccc(C#N)cc1)NCC(=O)O)c1ccccc1` [Exemple 54, acide N-[N-(R)-a-méthylbenzylamino (4-cyanophénylimino)méthyl]-2-aminoéthanoïque] came in with a Pouvoir édulcorant in assay [2] of 9000. Moreover, the “pouvoir édulcorant, sur une base pondérale” value in assay [2] (setting [3]) was ~9 000 fois celui du saccharose; in assay [2] (setting [4]), roughly 6600 times sucrose; in assay [2] (setting [5]), ~2 500 fois celui du saccharose. In assay [2], `Cc1cc(N=C(NCC(=O)O)N[C@@H](C)c2ccccc2)ccc1C#N` [Exemple 22, acide N-[N-(S)-a-méthylbenzylamino (4-cyano-3-méthylphénylimino)méthyl]-2-aminoéthanoïque] came in with a Pouvoir édulcorant of 50000. The “pouvoir édulcorant, sur une base pondérale” value in assay [2] (setting [3]) is ~50 000 fois celui du saccharose.

For `C[C@H](NC(=Nc1cccc(C(F)(F)F)c1)NCC(=O)O)c1ccccc1` [Exemple 3], in assay [2], the “Pouvoir édulcorant” value is reported as 7 500. The “pouvoir édulcorant, sur une base pondérale” value in assay [2] (setting [3]) is on record as ~7 500 fois celui du saccharose. The like results for `C[C@H](NC(=Nc1cccc(C#N)c1)NCC(=O)O)c1ccccc1` [Exemple 7, acide N-[N-(S)-α-méthylbenzylamino (3-cyanophénylimino)méthyl]-2-aminoéthanoïque] were, in that order, 5 500 and ~5 500 fois celui du saccharose.

Regarding Cyclamate de sodium, the “Pouvoir sucrant (saccharose = 1)” value in assay [1] is 30. Take `CC(C)(C)CC(C)(C)NC(=Nc1ccc(C#N)cc1)NCC(=O)O` [Exemple 39, acide N-[N-(1,1,3,3-tétraméthylbut-yl)amino(4-cyanophénylimino)méthyl]-2-aminoéthanoïque]: in assay [2], the “Pouvoir édulcorant” value is on record as 1 200. Besides, the “pouvoir édulcorant, sur une base pondérale” value in assay [2] (setting [3]) was ~1 200 fois celui du saccharose.

Take `C[C@@H](NC(=O)[C@@H](N)CC(=O)O)C(=O)NC1C(C)(C)SC1(C)C` [Alitame]: the “Pouvoir sucrant (saccharose = 1)” value in assay [1] is given as 2000. For `O=C(O)CNC(=Nc1cc(Cl)cc(Cl)c1)NC1CCCCCCC1` [Exemple 46, acide N-[N-cyclooctylamino (3,5-dichlorophénylimino)méthyl]-2-aminoéthanoïque], the Pouvoir édulcorant in assay [2] is 60000. In addition, in assay [2] (setting [3]), the “pouvoir édulcorant, sur une base pondérale” value is on record as ~60 000 fois celui du saccharose. The like results for `CC(NC(=Nc1cc(Cl)cc(Cl)c1)N[C@H](C)C(=O)O)c1ccccc1` (stereo partly drawn) [Exemple 86, acide (R)-N-[N-(S)-α-méthylbenzylamino(3,5-dichlorophénylimino)méthyl]-2-aminopropanoïque] were, in that order, 120 and roughly 120 fois celui du saccharose. The corresponding values for `CC(C)CCNC(=Nc1ccc(C#N)cc1)NCC(=O)O` [Exemple 37, acide N-[N-(3-méthylbutyl)amino (4-cyanophénylimino)méthyl)-2-aminoéthanoïque] are 200 and roughly 200 fois celui du saccharose. As for `O=C(O)CNC(=Nc1ccccc1)NCC1CCCCC1` [Exemple 55, acide N-[N-cyclohexylméthylamino (phénylimino)méthyl]-2-aminoéthanoïque], the “Pouvoir édulcorant” value in assay [2] is 3 300. Besides, the figures for the “pouvoir édulcorant, sur une base pondérale” value in assay [2] (setting [3]), in assay [2] (setting [4]) and in assay [2] (setting [5]) were ~3 300 fois celui du saccharose, ~2 500 fois celui du saccharose and ~2 000 fois celui du saccharose, respectively. As to `N#Cc1ccc(N=C(NCC(=O)O)Nc2cccc(Cl)c2)cc1` [Exemple 80, acide N-[N-(3-chlorophényl)amino(4-cyanophénylimino)méthyl]-2-aminoéthanoïque], the Pouvoir édulcorant in assay [2] worked out at 10000.
